The source made the active and inactive calls. No rule for the calls is given here.
Test system: CCRIS mutagenicity, Ames/micronucleus/aberration tests
Assay: CCRIS mutagenicity studies
[1] = Test System: AMES SALMONELLA TYPHIMURIUM, Strain/Indicator: TA98, Metabolic Activation: NONE, Method: STANDARD PLATE
[2] = Test System: AMES SALMONELLA TYPHIMURIUM, Strain/Indicator: TA1537, Metabolic Activation: NONE, Method: STANDARD PLATE
[3] = Test System: AMES SALMONELLA TYPHIMURIUM, Strain/Indicator: TA1538, Metabolic Activation: NONE, Method: STANDARD PLATE

For `CC1(C)C(C=C(Cl)Cl)C1C(=O)OC(C#N)c1cccc(Oc2ccccc2)c1` (stereo unspecified), the mutagenic call (Test System: AMES SALMONELLA TYPHIMURIUM, Strain/Indicator: TA97, Metabolic Activation: BARLEY, HOMOGENATES, Method: STANDARD PLATE) was “inactive; negative”, the mutagenic call (Test System: AMES SALMONELLA TYPHIMURIUM, Strain/Indicator: TA97, Metabolic Activation: NONE, Method: STANDARD PLATE) was “inactive; negative” and the mutagenic call (Test System: AMES SALMONELLA TYPHIMURIUM, Strain/Indicator: TA97, Metabolic Activation: RAT, LIVER, S-9, DELOR 103, Method: STANDARD PLATE) was “inactive; negative”. For the same molecule, the mutagenic call (Test System: AMES SALMONELLA TYPHIMURIUM, Strain/Indicator: TA98, Metabolic Activation: BARLEY, HOMOGENATES, Method: STANDARD PLATE) was “inactive; negative”, the mutagenic call [1] was “inactive; negative” and the mutagenic call (Test System: AMES SALMONELLA TYPHIMURIUM, Strain/Indicator: TA98, Metabolic Activation: RAT, LIVER, S-9, AROCLOR 1254, Method: STANDARD PLATE) was “inactive; negative”. For the same molecule, the mutagenic call (Test System: AMES SALMONELLA TYPHIMURIUM, Strain/Indicator: TA98, Metabolic Activation: RAT, LIVER, S-9, DELOR 103, Method: STANDARD PLATE) was “inactive; negative”, the mutagenic call (Test System: AMES SALMONELLA TYPHIMURIUM, Strain/Indicator: TA100, Metabolic Activation: BARLEY, HOMOGENATES, Method: STANDARD PLATE) was “inactive; negative” and the mutagenic call (Test System: AMES SALMONELLA TYPHIMURIUM, Strain/Indicator: TA100, Metabolic Activation: NONE, Method: STANDARD PLATE) was “inactive; negative”. The mutagenic call (Test System: AMES SALMONELLA TYPHIMURIUM, Strain/Indicator: TA100, Metabolic Activation: RAT, LIVER, S-9, AROCLOR 1254, Method: STANDARD PLATE) was “inactive; negative”, the mutagenic call (Test System: AMES SALMONELLA TYPHIMURIUM, Strain/Indicator: TA100, Metabolic Activation: RAT, LIVER, S-9, DELOR 103, Method: STANDARD PLATE) was “inactive; negative” and the mutagenic call (Test System: AMES SALMONELLA TYPHIMURIUM, Strain/Indicator: TA1535, Metabolic Activation: BARLEY, HOMOGENATES, Method: STANDARD PLATE) was “inactive; negative”. The mutagenic call (Test System: AMES SALMONELLA TYPHIMURIUM, Strain/Indicator: TA1535, Metabolic Activation: NONE, Method: STANDARD PLATE) was “inactive; negative”, the mutagenic call (Test System: AMES SALMONELLA TYPHIMURIUM, Strain/Indicator: TA1535, Metabolic Activation: RAT, LIVER, S-9, AROCLOR 1254, Method: STANDARD PLATE) was “inactive; negative” and the mutagenic call (Test System: AMES SALMONELLA TYPHIMURIUM, Strain/Indicator: TA1535, Metabolic Activation: RAT, LIVER, S-9, DELOR 103, Method: STANDARD PLATE) was “inactive; negative”. The mutagenic call [2] was “inactive; negative”, the mutagenic call (Test System: AMES SALMONELLA TYPHIMURIUM, Strain/Indicator: TA1537, Metabolic Activation: RAT, LIVER, S-9, AROCLOR 1254, Method: STANDARD PLATE) was “inactive; negative” and the mutagenic call [3] was “inactive; negative”. For the same molecule, the mutagenic call (Test System: AMES SALMONELLA TYPHIMURIUM, Strain/Indicator: TA1538, Metabolic Activation: RAT, LIVER, S-9, DELOR 103, Method: STANDARD PLATE) was “inactive; negative”, the mutagenic call (Test System: CHINESE HAMSTER V-79, Strain/Indicator: V-79/6-THIOGUANINE, Metabolic Activation: NONE, Method: STANDARD PLATE) was “inactive; negative” and the mutagenic call (Test System: CHINESE HAMSTER V-79, Strain/Indicator: V-79/6-THIOGUANINE, Metabolic Activation: RAT HEPATOCYTES, Method: STANDARD PLATE) was “inactive; negative”. The mutagenic call (Test System: CHINESE HAMSTER V-79, Strain/Indicator: V-79/OUABAIN, Metabolic Activation: NONE, Method: STANDARD PLATE) was “inactive; negative”, the mutagenic call (Test System: CHINESE HAMSTER V-79, Strain/Indicator: V-79/OUABAIN, Metabolic Activation: RAT HEPATOCYTES, Method: STANDARD PLATE) was “inactive; negative” and the mutagenic call (Test System: E. COLI, Strain/Indicator: WP2, Metabolic Activation: NONE, Method: STANDARD PLATE) was “inactive; negative”. For the same molecule, the mutagenic call (Test System: E. COLI, Strain/Indicator: WP2, Metabolic Activation: RAT, LIVER, S-9, AROCLOR 1254, Method: STANDARD PLATE) was “inactive; negative”.

In the case of `CC(=O)Nc1ccc(N=Nc2cc(C)ccc2O)cc1`, the mutagenic call (End Point: IN VITRO CHROMOSOMAL ABERRATIONS, Test System: CHO CELLS, Metabolic Activation: NONE) is reported as “inactive; negative”, the mutagenic call (End Point: IN VITRO CHROMOSOMAL ABERRATIONS, Test System: CHO CELLS, Metabolic Activation: RAT, LIVER, S-9, AROCLOR 1254) is reported as “inactive; negative” and the mutagenic call (Test System: AMES SALMONELLA TYPHIMURIUM, Strain/Indicator: TA97, Metabolic Activation: HAMSTER, LIVER, S-9, AROCLOR 1254 (10%), Method: PREINCUBATION) is reported as “active; positive”. For the same molecule, the mutagenic call (Test System: AMES SALMONELLA TYPHIMURIUM, Strain/Indicator: TA97, Metabolic Activation: NONE, Method: PREINCUBATION) was “active; positive”, the mutagenic call (Test System: AMES SALMONELLA TYPHIMURIUM, Strain/Indicator: TA97, Metabolic Activation: RAT, LIVER, S-9, AROCLOR 1254 (10%), Method: PREINCUBATION) was “active; positive” and the mutagenic call (Test System: AMES SALMONELLA TYPHIMURIUM, Strain/Indicator: TA98, Metabolic Activation: HAMSTER, LIVER, S-9, AROCLOR 1254 (5, 10, 20%), Method: PREINCUBATION) was “active; positive”. For the same molecule, the mutagenic call (Test System: AMES SALMONELLA TYPHIMURIUM, Strain/Indicator: TA98, Metabolic Activation: HAMSTER, LIVER, S-9, AROCLOR 1254 (10%), Method: PREINCUBATION) was “active; positive”, the mutagenic call (Test System: AMES SALMONELLA TYPHIMURIUM, Strain/Indicator: TA98, Metabolic Activation: HAMSTER, LIVER, S-9, AROCLOR 1254, Method: STANDARD PLATE) was “active; positive” and the mutagenic call (Test System: AMES SALMONELLA TYPHIMURIUM, Strain/Indicator: TA98, Metabolic Activation: HAMSTER, LIVER, S-9, Method: PREINCUBATION (PRIVAL METHOD)) was “active; positive”. For the same molecule, the mutagenic call (Test System: AMES SALMONELLA TYPHIMURIUM, Strain/Indicator: TA98, Metabolic Activation: NONE, Method: PREINCUBATION) was “active; positive”, the mutagenic call [1] was “active; positive” and the mutagenic call (Test System: AMES SALMONELLA TYPHIMURIUM, Strain/Indicator: TA98, Metabolic Activation: RAT, LIVER, S-9, AROCLOR 1254 (10%), Method: PREINCUBATION) was “active; positive”. The mutagenic call (Test System: AMES SALMONELLA TYPHIMURIUM, Strain/Indicator: TA98, Metabolic Activation: RAT, LIVER, S-9, AROCLOR 1254, HAMSTER, LIVER, S-9, AROCLOR 1254, Method: STANDARD PLATE) was “active; positive”, the mutagenic call (Test System: AMES SALMONELLA TYPHIMURIUM, Strain/Indicator: TA100, Metabolic Activation: HAMSTER, LIVER, S-9, AROCLOR 1254 (10%), Method: PREINCUBATION) was “active; positive” and the mutagenic call (Test System: AMES SALMONELLA TYPHIMURIUM, Strain/Indicator: TA100, Metabolic Activation: HAMSTER, LIVER, S-9, AROCLOR 1254, Method: STANDARD PLATE) was “active; positive”. The mutagenic call (Test System: AMES SALMONELLA TYPHIMURIUM, Strain/Indicator: TA100, Metabolic Activation: HAMSTER, LIVER, S-9, Method: PREINCUBATION (PRIVAL METHOD)) was “active; positive”, the mutagenic call (Test System: AMES SALMONELLA TYPHIMURIUM, Strain/Indicator: TA100, Metabolic Activation: NONE, Method: PREINCUBATION) was “active; positive” and the mutagenic call (Test System: AMES SALMONELLA TYPHIMURIUM, Strain/Indicator: TA100, Metabolic Activation: RAT, LIVER, S-9, AROCLOR 1254 (10%), Method: PREINCUBATION) was “active; positive”. The mutagenic call (Test System: AMES SALMONELLA TYPHIMURIUM, Strain/Indicator: TA1535, Metabolic Activation: HAMSTER, LIVER, S-9, AROCLOR 1254 (10%), Method: PREINCUBATION) was “inactive; negative”, the mutagenic call (Test System: AMES SALMONELLA TYPHIMURIUM, Strain/Indicator: TA1535, Metabolic Activation: NONE, Method: PREINCUBATION) was “inactive; negative” and the mutagenic call (Test System: AMES SALMONELLA TYPHIMURIUM, Strain/Indicator: TA1535, Metabolic Activation: RAT, LIVER, S-9, AROCLOR 1254 (10%), Method: PREINCUBATION) was “inactive; negative”. For the same molecule, the mutagenic call [2] was “active; positive”, the mutagenic call (Test System: AMES SALMONELLA TYPHIMURIUM, Strain/Indicator: TA1537, Metabolic Activation: RAT, LIVER, S-9, AROCLOR 1254, HAMSTER, LIVER, S-9, AROCLOR 1254, Method: STANDARD PLATE) was “active; positive” and the mutagenic call [3] was “active; positive”. For the same molecule, the mutagenic call (Test System: AMES SALMONELLA TYPHIMURIUM, Strain/Indicator: TA1538, Metabolic Activation: RAT, LIVER, S-9, AROCLOR 1254, HAMSTER, LIVER, S-9, AROCLOR 1254, Method: STANDARD PLATE) was “active; positive”, the mutagenic call (Test System: Mouse lymphoma, Strain/Indicator: L5178Y (tk+/tk-), Metabolic Activation: None, Method: Suspension/Plate) was “inactive; negative” and the mutagenic call (Test System: Mouse lymphoma, Strain/Indicator: L5178Y (tk+/tk-), Metabolic Activation: Rat, Liver, S-9, Aroclor 1254, Method: Suspension/Plate) was “inactive; inconclusive (previous evaluation negative)”.

For `CN=NC(C)(C)OO`, the mutagenic call (Test System: AMES SALMONELLA TYPHIMURIUM, Strain/Indicator: TA100, Metabolic Activation: NONE) was “active; positive”, the mutagenic call (Test System: AMES SALMONELLA TYPHIMURIUM, Strain/Indicator: TA102, Metabolic Activation: NONE) was “active; positive” and the mutagenic call (Test System: AMES SALMONELLA TYPHIMURIUM, Strain/Indicator: TA1535, Metabolic Activation: NONE) was “active; positive”. For the same molecule, the mutagenic call (Test System: E. COLI, Strain/Indicator: WP2 (HCR-), Metabolic Activation: NONE) was “active; positive”.

Source: PubChem BioAssay AID1259407 (Chemical Carcinogenesis Research Information System (CCRIS), 2018)
